From ChEMBL document CHEMBL1201862, “PubChem BioAssay data set” (2004)
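Where inhibition never reached the appropriate level, the endpoint shown equals the highest concentration tested. Otherwise, values were interpolated linearly from a five-concentration, 48-hour dose response in 96-well plates. GI50 is the concentration that inhibits growth by half.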 The source made the active and inactive calls. Rule as the data show it: active = GI50 up to about 1.1 µM and inactive = higher.

What was measured:
Assay in all cases: DTP human tumour cell line panel, 48 h
MOLT-4 = system: MOLT-4
UACC-62 = system: UACC-62
COLO 205 = system: COLO 205
ACHN = system: ACHN
OVCAR-8 = system: OVCAR-8
BT-549 = system: BT-549
LXFL 529 = system: LXFL 529
SR = system: SR
UO-31 = system: UO-31
CCRF-CEM = system: CCRF-CEM
SNB-75 = system: SNB-75
SK-MEL-5 = system: SK-MEL-5
HOP-92 = system: HOP-92
PC-3 = system: PC-3
NCI-H226 = system: NCI-H226
SF-295 = system: SF-295
SF-268 = system: SF-268
K562 = system: K562
U-251 = system: U-251
HCT-116 = system: HCT-116

Compound	GI50 (MOLT-4)	GI50 (UACC-62)	GI50 (COLO 205)	GI50 (ACHN)	GI50 (OVCAR-8)	GI50 (BT-549)	GI50 (LXFL 529)	GI50 (SR)	GI50 (UO-31)	GI50 (CCRF-CEM)	GI50 (SNB-75)	GI50 (SK-MEL-5)	GI50 (HOP-92)	GI50 (PC-3)	GI50 (NCI-H226)	GI50 (SF-295)	GI50 (SF-268)	GI50 (K562)	GI50 (U-251)	GI50 (HCT-116)
Oc1cc(-c2cccc(Cl)c2)nc2cc3c(cc12)OCO3	1.89 µM (inactive)	0.201 µM (active)	1.85 µM (inactive)	0.402 µM (active)	0.647 µM (active)	0.284 µM (active)	0.19 µM (active)	0.342 µM (active)	0.33 µM (active)	0.519 µM (active)	0.258 µM (active)	0.13 µM (active)	0.951 µM (active)	0.308 µM (active)	–	–	–	–	–	–
CC(=O)/C(=N\O)C(=O)NCc1ccccc1	> 100 µM (inactive)	> 100 µM (inactive)	58.9 µM (inactive)	> 100 µM (inactive)	> 100 µM (inactive)	–	> 100 µM (inactive)	> 100 µM (inactive)	> 100 µM (inactive)	> 100 µM (inactive)	> 100 µM (inactive)	> 100 µM (inactive)	> 100 µM (inactive)	–	> 100 µM (inactive)	> 100 µM (inactive)	> 100 µM (inactive)	36.4 µM (inactive)	> 100 µM (inactive)	> 100 µM (inactive)
O=C(CN1CCN(c2ccccc2)CC1)N1CCc2c([nH]c3ccccc23)C1c1cccnc1 (stereo unspecified)	> 100 µM (inactive)	88.7 µM (inactive)	> 100 µM (inactive)	51.8 µM (inactive)	24.4 µM (inactive)	–	71.9 µM (inactive)	> 100 µM (inactive)	> 58.3 µM (inactive)	> 100 µM (inactive)	6.92 µM (inactive)	51.3 µM (inactive)	20.2 µM (inactive)	–	> 100 µM (inactive)	23.7 µM (inactive)	39.1 µM (inactive)	> 76.4 µM (inactive)	14.3 µM (inactive)	14.5 µM (inactive)
CCN(CC)CC(C)(C)C(=O)/C=C/c1ccc(/C=C/C(=O)C(C)(C)CN(CC)CC)cc1	0.14 µM (active)	1.46 µM (inactive)	0.339 µM (active)	1.34 µM (inactive)	0.259 µM (active)	–	0.188 µM (active)	0.0893 µM (active)	1.8 µM (inactive)	0.0646 µM (active)	1.61 µM (inactive)	1.54 µM (inactive)	0.397 µM (active)	0.414 µM (active)	2.28 µM (inactive)	1.22 µM (inactive)	0.512 µM (active)	0.0935 µM (active)	0.469 µM (active)	0.334 µM (active)
CCCCCCCCCC[C@@H](O)[C@@H]1CC[C@@H]([C@@H]2CC[C@@H]([C@@H](O)CCCCCCCCCC[C@H](O)CC3=CC(C)OC3=O)O2)O1 (stereo partly specified)	1.77 µM (inactive)	1.44 µM (inactive)	3.94 µM (inactive)	0.0355 µM (active)	2.65 µM (inactive)	4.23 µM (inactive)	3.82 µM (inactive)	2.05 µM (inactive)	1.25 µM (inactive)	1.5 µM (inactive)	3.33 µM (inactive)	0.0385 µM (active)	2.26 µM (inactive)	2.34 µM (inactive)	1.29 µM (inactive)	1.71 µM (inactive)	3.87 µM (inactive)	0.0318 µM (active)	6.03 µM (inactive)	1.91 µM (inactive)
CC(=O)O[C@@]12CO[C@@H]1C[C@H](O)[C@@]1(C)C(=O)[C@H](O)C3=C(C)[C@@H](OC(=O)[C@H](O)[C@@H](NC(=O)OC(C)(C)C)c4ccccc4)C[C@@](O)([C@@H](OC(=O)c4ccccc4)[C@H]21)C3(C)C [DOCETAXEL]	< 0.0631 µM (active)	< 0.01 µM (active)	< 0.01 µM (active)	0.59 µM (active)	< 0.01 µM (active)	0.00342 µM (active)	< 0.01 µM (active)	< 0.01 µM (active)	0.885 µM (active)	< 0.01 µM (active)	< 0.01 µM (active)	< 0.01 µM (active)	9.04 µM (inactive)	0.00578 µM (active)	–	0.0107 µM (active)	< 0.01 µM (active)	< 0.01 µM (active)	< 0.01 µM (active)	< 0.01 µM (active)
CC1=C(C(=O)Nc2ccccc2)C(c2ccc(N(C)C)cc2)C(C(=O)Nc2ccccc2)=C(C)N1	2.89 µM (inactive)	0.2 µM (active)	1.41 µM (inactive)	0.494 µM (active)	11.9 µM (inactive)	–	0.175 µM (active)	11.1 µM (inactive)	2.37 µM (inactive)	3.94 µM (inactive)	35.6 µM (inactive)	1.1 µM (active)	65.9 µM (inactive)	4.08 µM (inactive)	> 89.5 µM (inactive)	3.54 µM (inactive)	9.31 µM (inactive)	1.09 µM (active)	15.9 µM (inactive)	4.72 µM (inactive)
Cn1nc2ccc3nccc(NCCNCCO)c3c2n1	5.56 µM (inactive)	33.3 µM (inactive)	17.5 µM (inactive)	34.3 µM (inactive)	36.4 µM (inactive)	–	39.2 µM (inactive)	10 µM (inactive)	25.8 µM (inactive)	> 100 µM (inactive)	45.2 µM (inactive)	56.5 µM (inactive)	36.3 µM (inactive)	–	41.2 µM (inactive)	39.3 µM (inactive)	27.4 µM (inactive)	73.5 µM (inactive)	37 µM (inactive)	18.2 µM (inactive)
Cc1ccc(NC(=O)/C(Cl)=C(/Cl)C(=O)O)cc1	11.5 µM (inactive)	15.9 µM (inactive)	6.93 µM (inactive)	16.5 µM (inactive)	–	–	11.9 µM (inactive)	18.2 µM (inactive)	17.8 µM (inactive)	2.12 µM (inactive)	17.7 µM (inactive)	28.4 µM (inactive)	18.2 µM (inactive)	–	31.8 µM (inactive)	30.2 µM (inactive)	23 µM (inactive)	3.57 µM (inactive)	17.1 µM (inactive)	15 µM (inactive)
NNC(=O)C(=O)N/N=C1/CCCC1C(=O)CCC(=O)Nc1ccc(Cl)cc1 (stereo unspecified)	> 100 µM (inactive)	2.49 µM (inactive)	> 100 µM (inactive)	15.3 µM (inactive)	> 100 µM (inactive)	–	20.6 µM (inactive)	> 100 µM (inactive)	> 100 µM (inactive)	> 100 µM (inactive)	> 100 µM (inactive)	> 100 µM (inactive)	> 100 µM (inactive)	–	> 100 µM (inactive)	> 100 µM (inactive)	> 100 µM (inactive)	12.1 µM (inactive)	> 100 µM (inactive)	> 100 µM (inactive)
CCCCCCCCCC(=O)N[C@H]1CCc2cc(OC)c(OC)c(OC)c2-c2ccc(SC)c(=O)cc21	0.0392 µM (active)	0.0353 µM (active)	0.00345 µM (active)	0.0507 µM (active)	0.0338 µM (active)	–	0.0297 µM (active)	0.0328 µM (active)	0.231 µM (active)	0.0426 µM (active)	0.0395 µM (active)	0.024 µM (active)	0.0168 µM (active)	–	0.0231 µM (active)	0.0274 µM (active)	0.0223 µM (active)	0.0395 µM (active)	0.0274 µM (active)	0.0209 µM (active)
COc1ccc(/C=C\c2cc(OC)c(OC)c(OC)c2)cc1OC	0.194 µM (active)	0.197 µM (active)	0.0767 µM (active)	0.348 µM (active)	0.153 µM (active)	0.912 µM (active)	0.186 µM (active)	0.0649 µM (active)	2.21 µM (inactive)	0.13 µM (active)	0.098 µM (active)	0.207 µM (active)	9.66 µM (inactive)	0.112 µM (active)	0.056 µM (active)	0.108 µM (active)	0.298 µM (active)	0.12 µM (active)	0.117 µM (active)	0.135 µM (active)
OC1[C@H]([C@H]2CCCC[C@@H]2O)CCC[C@@H]1[C@@H]1CCCC[C@H]1O (stereo partly specified)	> 100 µM (inactive)	> 100 µM (inactive)	> 100 µM (inactive)	> 100 µM (inactive)	> 100 µM (inactive)	–	> 100 µM (inactive)	> 100 µM (inactive)	> 100 µM (inactive)	> 100 µM (inactive)	> 100 µM (inactive)	> 100 µM (inactive)	> 100 µM (inactive)	–	> 100 µM (inactive)	> 100 µM (inactive)	> 100 µM (inactive)	> 100 µM (inactive)	> 100 µM (inactive)	> 100 µM (inactive)
c1ccc(CN2CCc3[nH]c4ccccc4c3C2)cc1	22.2 µM (inactive)	26.1 µM (inactive)	16.9 µM (inactive)	33.9 µM (inactive)	46.1 µM (inactive)	30.5 µM (inactive)	22.9 µM (inactive)	21.9 µM (inactive)	31.8 µM (inactive)	24.3 µM (inactive)	51.6 µM (inactive)	16.9 µM (inactive)	18 µM (inactive)	25.4 µM (inactive)	33.4 µM (inactive)	29.9 µM (inactive)	43.8 µM (inactive)	19.1 µM (inactive)	21.4 µM (inactive)	19.9 µM (inactive)
